Experimental findings from article PMC6158189, “A pharmacological probe identifies cystathionine β-synthase as a new negative regulator for ferroptosis” (Cell Death & Disease, 2018) are described below.

The structures appear in SMILES notation.

The test system of assay [1] is HepG2 cells. The experiment in a line: rescue of CH004-induced loss of viability by cell death inhibitors (CellTiter 96). The format is cell-based, human. Conditions: 100 µM DFO, 48 h or 72 h. The method, then: To measure cell viability and cytotoxicity, HepG2, HEK293T, Huh-7, H22, Panc-28, HCT116 and MDA-MB-231 cells were seeded at a density of ~ 2 × 10^4 cells per well in 96-well plates (Coring, NY, USA) for one day, followed by incubation with DMSO or various concentrations of tested compound for indicated times. Then, the cells were collected to measure the cell viability using the CellTiter 96® Aqueous One Solution Cell Proliferation Assay (Promega, G3581) according to the standard protocols.
Figure S15. The mode of actions for CH004 in cells. […] Indicated HEK293T stable cell lines were treated with CH004 at a concentration of 10 µM for 24 h, and the cell viability was then measured using the CellTiter96® Aqueous One Solution Cell Proliferation Assay (Promega). Means ± SDs (n=3). (B-C) CH004 or erastin triggers ferroptosis in mouse embryonic fibroblasts (MEF). WT MEF cells were treated with CH004 or erastin at indicated concentrations in the presence or the absence of 500 µM DFO for 24 h before measuring the lipid ROS with 2 μM BODIPY® 581/591 C11 (Materials and methods). […] The cell viability was accordingly quantified using the CellTiter96® Aqueous One Solution Cell Proliferation Assay (Promega) and the results were shown as percentages of DMSO (control, 100%). […]

Assay [2] concerns HepG2 cells. The experiment in a line: lipid ROS (BODIPY 581/591 C11, flow cytometry). The format is cell-based, human. Conditions: 24 h; for accumulation of lipid ROS in HepG2 cells: up to 15 μM. On the procedure:
(§1) To detect lipid peroxidation upon treatment with CH004, HepG2 cells or mouse embryonic fibroblasts (MEF) were seeded in 12-well plates with ~ 1.8 × 10^5 cells per well for 24 h. After treatment with the inhibitor for another 24 h, cells were stained with BODIPY® 581/591 C11 (Invitrogen) for 1 h at a final concentration of 2 μM at 37 °C[57]. The cells were then resuspended in an appropriate amount of PBS after being washed once with PBS. Lipid peroxidation, i.e., lipid ROS, was analyzed by detection of the fluorescence using an LSR Fortessa flow cytometer. The data were recorded at 530/30 nm (green fluorescent) and 670/30 nm (red fluorescent) wavelengths after excitation at 488 nm. A minimum of 20000 events was used for the analysis. All the experiments were independently repeated twice in triplicate.
Figure S15. The mode of actions for CH004 in cells. […] Indicated HEK293T stable cell lines were treated with CH004 at a concentration of 10 µM for 24 h, and the cell viability was then measured using the CellTiter96® Aqueous One Solution Cell Proliferation Assay (Promega). Means ± SDs (n=3). (B-C) CH004 or erastin triggers ferroptosis in mouse embryonic fibroblasts (MEF). WT MEF cells were treated with CH004 or erastin at indicated concentrations in the presence or the absence of 500 µM DFO for 24 h before measuring the lipid ROS with 2 μM BODIPY® 581/591 C11 (Materials and methods). […] Erastin at micromolar concentrations were incubated with HepG2 cells for 24 h before measuring the lipid ROS (see above and Materials and methods). […] Means ± SDs (n=3). […] CH004 or erastin at a concentration of 20 µM was incubated with HepG2 cells for 48 h or 72 h in the presence or the absence of 100 µM DFO. The cell viability was accordingly quantified using the CellTiter96® Aqueous One Solution Cell Proliferation Assay (Promega) and the results were shown as percentages of DMSO (control, 100%). Means ± SDs (n=3). All the experiments were independently repeated at least twice and one representative result is present. Table S1 The inhibitory effects of CH004 on purified hCBS, hCSE and hDDC.

The test system of assay [3] is mouse embryonic fibroblasts (MEF). The assay can be described thus: lipid ROS (BODIPY 581/591 C11, flow cytometry). Conditions: low micromolar concentrations, 24 h. Type of assay: cell-based. On the procedure: as §1
Figure S15. The mode of actions for CH004 in cells. […] Indicated HEK293T stable cell lines were treated with CH004 at a concentration of 10 µM for 24 h, and the cell viability was then measured using the CellTiter96® Aqueous One Solution Cell Proliferation Assay (Promega). Means ± SDs (n=3). (B-C) CH004 or erastin triggers ferroptosis in mouse embryonic fibroblasts (MEF). […] The cell viability was accordingly quantified using the CellTiter96® Aqueous One Solution Cell Proliferation Assay (Promega) and the results were shown as percentages of DMSO (control, 100%). […]
Background: A flow cytometer gives signals particle by particle.

Assay [4] concerns HepG2 cells. The experiment in a line: cell viability (CellTiter 96 Aqueous One). Conditions: 20 μM, 48 h or 72 h. Type of assay: cell-based, human. On the procedure: Fig. 4 CH004 arrests the cell cycle at the S phase. a CH004 reduces the cell viability of HEK293T and HepG2 cells. HEK293T or HepG2 cells were treated with indicated concentrations of CH004 for 24 h before the cell number was analyzed using the CellTiter96® Aqueous One Solution Cell Proliferation Assay (Promega, Materials and Methods). The means at each concentration of one representative experiment are shown as percentages of DMSO (control, 100%). Means ± SDs (n = 3). b Overexpression of hCBS or knock-down of hCBS counteracts the growth inhibition exerted by CH004 in HEK293T cells. Indicated HEK293T stable cell lines were treated with the CH004 or DMSO for 24 h. Then, the cell viability was quantified with the CellTiter 96® Aqueous One Solution Cell Proliferation Assay under the standard protocol (Promega). The means at each concentration are shown as percentages of their respective DMSO controls (100%). Means ± SDs (n = 3). The efficacy for CBS overexpression and knock-down in HEK293T cells was determined by Western blotting using an anti-CBS antibody (3E1, 1:2000; Abnova). c CH004 induces cell death in HEK293T and HepG2 cells. […] The means of percentages of dead cells (DMSO, 100%) from three independent samples are shown in d. Means ± SDs (n = 3). e, f Pharmacological inhibition or genetic knock-down of hCBS in HEK293T cells arrests the cell cycle at S phase. HEK293T cells were incubated with indicated compounds for 12 h, and the DNA content was quantified with propidium iodide to analyze the cell cycle distribution by flow cytometry (e). The cell cycle distributions for HEK293T-shNT and HEK293T-shCBS cells were accordingly analyzed and are shown in f. One representative diagram is shown for each condition. The mean percentages of various cell phases from three independent samples are shown in the respective right panels. Means ± SDs (n = 3). […]
Figure S15. […] Indicated HEK293T stable cell lines were treated with CH004 at a concentration of 10 µM for 24 h, and the cell viability was then measured using the CellTiter96® Aqueous One Solution Cell Proliferation Assay (Promega). […]

For the molecule `CC(=O)N(O)CCCCCNC(=O)CCC(=O)N(O)CCCCCNC(=O)CCC(=O)N(O)CCCCCN` [deferoxamine], the “rescue of cell death caused by 20 µM CH004” value in assay [1] is reported as “partially rescues”. For the same molecule, the “reduction of lipid ROS caused by 10 μM CH004” value in assay [2] (500 μM deferoxamine, HepG2) is reported as “almost completely reduced”.
`CCOc1ccccc1-n1c(C(C)N2CCN(C(=O)COc3ccc(Cl)cc3)CC2)nc2ccccc2c1=O` (stereo not drawn) [erastin, reference compound]: in assay [3], the “induction of ferroptosis (lipid ROS) in MEF” value was ~ 3 fold. The “accumulation of lipid ROS in HepG2 cells” value in assay [2] is reported as “did not trigger”; in assay [2] (listed as Erastin), “does not induce ferroptosis”. In addition, the “cell death in HepG2 cells” value in assay [4] is on record as “did not trigger”.
